The source of these data is PMC9930359, “Cytotoxicity of the methanol extracts and compounds of Brucea antidysenterica (Simaroubaceae) towards multifactorial drug-resistant human cancer cell lines” (BMC Complementary Medicine and Therapies, 2023).

The subject of data set [1] is HCT116 p53+/+ cells. The data set can be described thus: Resazurin reduction assay (RRA), cytotoxicity. Type of data set: cell-based. Particulars: Homo sapiens, HCT-116, 72 h. In general terms: Resazurin is reduced to fluorescent resorufin, in cell work by metabolically active cells.
From the text: (§2) In this work, 9 cancer cell lines with various drug resistance patterns as well as AML12 hepatocytes as normal control cell line were used. […] The AML12 hepatocytes were used for the comparison of the activities of the samples with HepG2 [40]. […] The RPMI-1640 medium was used for the culture of CCRF-CEM and CEM/ADR5000 cells whilst DMEM medium was used for carcinoma cells. The culture media were supplemented (complete medium) with 10% fetal bovine serum and 1% penicillin/streptomycin (Invitrogen, Eggenstein, Germany). […] To maintain the resistance phenotype of the resistant carcinoma cell lines such as MDA-MB-231/BCRP and HCT116 p53^−/−, and U87MG.ΔEGFR cells, the complete DMEM medium containing geneticin at 800 ng/ml and 400 µg/ml, respectively were used [41, 42].
(§3) Cells were cultured in a standard condition consisted of a humidified 5% CO2 atmosphere and an incubation temperature of 37 °C. The tested concentration ranges were 0.63—80 µg/mL for the botanicals and 0.78—100 µM for phytochemicals. The incubation time of the treated cells was 72 h, and the fluorescence was measured with Infinite M2000 Pro™ plate reader (Tecan, Crailsheim, Germany). The wavelengths used were 544 nm for the excitation and 590 nm for the emission. […] The degree of resistance (D.R.) was set as the ratio of the IC50 values of samples in the resistant cell line vs that of corresponding sensitive cell line. The selectivity index (S.I.) was the ratio of the IC50 value of AML12 hepatocytes vs. that of HepG2 cells [13, 48].
Data set [2] deals with U87MG cells. The data set can be described thus: Resazurin reduction assay (RRA), cytotoxicity. Particulars: Homo sapiens, U-87 MG, 72 h. The data set is classed as cell-based.
From the text: as §2, §3
For data set [3], the system named is CEM/ADR5000 cells. Description: Resazurin reduction assay (RRA), cytotoxicity. The data set is classed as cell-based, human. Particulars: for IC50: Homo sapiens, CEM/ADR5000, 72 h; for Degree of resistance (D.R.): ratio of IC50 CEM/ADR5000 vs CCRF-CEM.
Method: (§4) The RPMI-1640 medium was used for the culture of CCRF-CEM and CEM/ADR5000 cells whilst DMEM medium was used for carcinoma cells. The culture media were supplemented (complete medium) with 10% fetal bovine serum and 1% penicillin/streptomycin (Invitrogen, Eggenstein, Germany). […] To maintain the resistance phenotype of the resistant carcinoma cell lines such as MDA-MB-231/BCRP and HCT116 p53^−/−, and U87MG.ΔEGFR cells, the complete DMEM medium containing geneticin at 800 ng/ml and 400 µg/ml, respectively were used [41, 42].
as §3
Data set [4] relates to HepG2 cells. The data set can be described thus: Resazurin reduction assay (RRA), cytotoxicity. The data set is classed as cell-based. Particulars: Homo sapiens, HepG2, 72 h.
From the text: as §2, §3
For data set [5], the system named is HCT116 p53−/− cells. The data set can be described thus: Resazurin reduction assay (RRA), cytotoxicity. The data set is classed as cell-based, human. Particulars: for IC50: Homo sapiens, HCT-116, HCT116 p53−/−, 72 h; for Degree of resistance (D.R.): ratio of IC50 HCT116 p53−/− vs HCT116 p53+/+.
Method: as §4, §3
The test system of data set [6] is AML12 hepatocytes. The data set can be described thus: Resazurin reduction assay (RRA), cytotoxicity on normal hepatocytes. The data set is classed as cell-based. Particulars: for IC50: Mus musculus, AML12 normal hepatocytes, 72 h; for Selectivity index (S.I.): ratio of IC50 in AML12 vs IC50 in HepG2 cells.
Method: as §4, §3
For data set [7], the system named is U87MG.ΔEGFR cells. The data set can be described thus: Resazurin reduction assay (RRA), cytotoxicity. The data set is classed as cell-based, human. Particulars: for IC50: Homo sapiens, U87MG.ΔEGFR, 72 h; for Degree of resistance (D.R.): ratio of IC50 U87.MGΔEGFR vs U87.MG.
Method: as §4, §3
Data set [8] concerns MDA-MB-231-pcDNA cells. Description: Resazurin reduction assay (RRA), cytotoxicity. Type of data set: cell-based. Particulars: Homo sapiens, 72 h.
From the text: as §2, §3
For data set [9], the system named is MDA-MB-231-BCRP cells. The data set can be described thus: Resazurin reduction assay (RRA), cytotoxicity. Particulars: for IC50: Homo sapiens, MDA-MB-231/BCRP, 72 h; for Degree of resistance (D.R.): ratio of IC50 MDA-MB-231-BCRP vs MDA-MB-231-pcDNA.
Method: as §4, §3
The subject of data set [10] is CCRF-CEM leukemia cells. Description: Resazurin reduction assay (RRA), cytotoxicity. The data set is classed as cell-based. Particulars: Homo sapiens, 72 h.
From the text: as §2, §3
In data set [11] the test system is CCRF-CEM cells. The data set can be described thus: Reactive oxygen species (ROS), H2DCFH-DA staining, flow cytometry. Type of data set: cell-based, human. Particulars: 50 µM, 24 h. As to the method:
(§1) The modification of the MMP as well as the ROS levels after the application of BAL, and flavonolignan 2 at ¼ IC50, ½ IC50, IC50, and 2 × IC50 to CCRF-CEM cells (1 × 10^6) was performed by flow cytometry. DMSO was used as solvent control while valinomycin served as a positive control. The cells were incubated for 24 h and further stained for 30 min with JC-1 [45] and measured (1 × 10^4 cells) in an LSR-Fortessa FACS analyzer (Becton–Dickinson). For ROS determination, CCEF-CEM cells were similarly treated BAL, the flavonolignan 2, hydrogen peroxide (H2O2; positive control), DMSO (solvent control) as in the MMP analysis, then incubated for 24 h. They were further stained with H2DCFH-DA and measured (1 × 10^4 cells) in an LSR-Fortessa FACS analyzer.

The test system of data set [12] is CCRF-CEM cells. The data set can be described thus: Mitochondrial membrane potential (MMP), JC-1 staining, flow cytometry. Particulars: 10 µM, 24 h. The data set is classed as cell-based, human. As to the method: as §1
In general terms: A flow cytometer gives signals particle by particle.

For `CC(C)=CC(=O)c1c[nH]c2ccccc12` [Compound 1, 3, (3-(3-methyl-1-oxo-2-butenyl))1H indole], the IC50 (usually the point on the concentration scale where inhibition reaches its midpoint) is 23.9 ± 2.32 µM in data set [1]; 24.2 ± 1.16 µM in [2]; 32 ± 2.05 µM in data set [3]; 39.9 ± 2.84 µM in data set [4]; 36.4 ± 3.04 µM in data set [5]; more than 100 µM in data set [6]. Besides, the IC50 came to 36.3 ± 3.01 µM in [7], 13.4 ± 0.93 µM in [8], 47.5 ± 2.75 µM in data set [9] and 19.1 ± 1.56 µM in [10]. Moreover, the “Degree of resistance (D.R.)” value came to 1.68 in data set [3], 1.53 in [5], 1.50 in data set [7] and 3.54 in data set [9]. The “Selectivity index (S.I.)” value in data set [6] is listed as more than 2.50.

With `C[C@@H](O)C1CCC2C3CC=C4C[C@@H](O[C@@H]5OC[C@H](O)[C@H](O)[C@H]5O)CC[C@]4(C)C3CC[C@@]21C` (stereo partly drawn) [Compound 3, (20R)-O-(3)-α-L-arabinopyranosyl-pregn-5-en-3β,20-diol], the melting point (as a rule, the temperature of the solid-liquid transition) fell in the range of 258 to 260 °C. For the same molecule, in data set [1], the IC50 is more than 100 µM. Besides, in data set [2], the IC50 was more than 100 µM. Also, in [3], the IC50 amounted to 73.9 ± 5.32 µM and the “Degree of resistance (D.R.)” value is recorded as 2.60. In data set [4], this molecule displayed an IC50 of 85.2 ± 5.7 µM. In addition, in data set [5], the IC50 is 50.5 ± 3.81 µM and the “Degree of resistance (D.R.)” value is on record as less than 0.50. Further, in [6], the IC50 is more than 100 µM and the “Selectivity index (S.I.)” value is reported as more than 1.17. For the same molecule, in data set [7], the IC50 is more than 100 µM. Also, the IC50 in data set [8] was more than 100 µM. In [9], this molecule gave an IC50 of more than 100 µM. The molecule further yielded an IC50 in data set [10] of 28.4 ± 1.76 µM.

With `C[C@@H](O)C1CCC2C3CC=C4C[C@@H](O[C@@H]5OC[C@H](O)[C@H](O)[C@H]5O[C@@H]5O[C@H](CO)[C@@H](O)[C@H](O)[C@H]5O)CC[C@]4(C)C3CC[C@@]21C` (stereo partly drawn) [Compound 4, (20R)-O-(3)-β-D-glucopyranosyl(1 → 2)-α-L-arabinopyranosyl-pregn-5-en-3β,20-diol], the melting point fell in the range of 258 to 260 °C. In [1], this molecule gave an IC50 of more than 100 µM. In [2], this molecule showed an IC50 of 28.3 ± 2.08 µM. Moreover, in data set [3], the IC50 is more than 100 µM and the “Degree of resistance (D.R.)” value was more than 3.13. The IC50 in data set [4] came to 31.2 ± 2.11 µM. For the same molecule, in data set [5], half-maximal inhibition (IC50) was put at 32.2 ± 2.37 µM and the “Degree of resistance (D.R.)” value is given as less than 0.32. For the same molecule, in data set [6], the IC50 is more than 100 µM and the “Selectivity index (S.I.)” value is on record as more than 3.21. In data set [7], the IC50 came to 28.3 ± 1.66 µM and the “Degree of resistance (D.R.)” value was determined as 1.00. This molecule also gave an IC50 in data set [8] of more than 100 µM. In data set [9], this molecule registered an IC50 of more than 100 µM. Moreover, the IC50 in [10] stood at 32 ± 2.16 µM.

As to `O=c1ccc2nccc3c4ccccc4n1c23` [Compound 5, canthin-6-one], the IC50 in [1] was 24.7 ± 2.16 µM; in [2], 19.6 ± 1.55 µM; in data set [3] it was more than 100 µM; in [4] it was 26.1 ± 1.63 µM; in data set [5], 21 ± 1.72 µM; in data set [6], more than 100 µM. Besides, the IC50 is 21.1 ± 1.49 µM in data set [7], more than 100 µM in data set [8], more than 100 µM in [9] and 44.2 ± 3.52 µM in data set [10]. The “Degree of resistance (D.R.)” value in data set [3] was more than 2.26; in data set [5], 0.85; in data set [7] it was 1.08. The “Selectivity index (S.I.)” value in data set [6] is more than 3.83.

For `CC(C)(O)[C@@H](O)Cc1cn([C@@H]2O[C@H](CO)[C@@H](O)[C@H](O)[C@H]2O)c2ccccc12` [Compound 7, 3-(2’,3’-dihydroxy-3’-méthylbutyl)-1N-β-glucopyranosylindole], the melting point fell in the range of 209 to 211 °C. In data set [1], this molecule returned a half-maximal inhibitory concentration (IC50) of more than 100 µM. This molecule came in with an IC50 in data set [2] of more than 100 µM. Further, in [3], the IC50 was more than 100 µM and the “Degree of resistance (D.R.)” value is given as more than 4.91. In data set [4], this molecule had an IC50 of more than 100 µM. The IC50 in data set [5] is more than 100 µM. The molecule also yielded an IC50 in data set [6] of more than 100 µM. In addition, in data set [7], the half-inhibitory concentration (IC50) was more than 100 µM. Further, the IC50 in data set [8] is more than 100 µM. In [9], this molecule came in with a concentration for half-maximal inhibition (IC50) of more than 100 µM. In data set [10], this molecule had an IC50 of 20.4 ± 0.94 µM.

In the case of `OO` [Compound H2O2, hydrogen peroxide, reference compound], in [11], the “ROS levels in treated cells” value was 94.30%.

Regarding `COc1cccc2c1C(=O)c1c(O)c3c(c(O)c1C2=O)C[C@@](O)(C(=O)CO)C[C@@H]3O[C@H]1C[C@H](N)[C@H](O)[C@H](C)O1` [Doxorubicin, reference compound], the IC50 in data set [2] (Table 2) was 0.26 ± 0.03 mg/L; in data set [3] (Table 2), 123 ± 10.9 mg/L; in data set [4] (Table 2), 4.56 ± 0.48 mg/L; in data set [5] (Table 2) it was 1.78 ± 0.08 mg/L; in data set [6] (Table 2), more than 50 mg/L; in [7] (Table 2) it was 0.98 ± 0.07 mg/L. Moreover, the IC50 in [8] (Table 2) was 0.13 ± 0.01 mg/L; in data set [9] it was 0.79 ± 0.08 mg/L; in data set [10], 0.02 µM; in [10] (Table 2) it was 0.02 mg/L. The “Degree of resistance (D.R.)” value in [3] is 6,683.00; in [5], 3.73; in data set [7], 3.79; in [9], 6.14.

Take `CC(C)[C@@H]1NC(=O)[C@H](C)OC(=O)[C@@H](C(C)C)NC(=O)[C@@H](C(C)C)OC(=O)[C@H](C(C)C)NC(=O)[C@H](C)OC(=O)[C@@H](C(C)C)NC(=O)[C@@H](C(C)C)OC(=O)[C@H](C(C)C)NC(=O)[C@H](C)OC(=O)[C@@H](C(C)C)NC(=O)[C@@H](C(C)C)OC1=O` [valinomycin, reference compound]: in [12], the “cells with MMP disrupted” value was found to be 16.8%, the “cells with MMP loosed” value came to 44.5% and the “healthy cells (intact MMP)” value is listed as 38.8%.
